# Measured values as given in PMC9653173, “Trotabresib (CC-90010) in combination with adjuvant temozolomide or concomitant temozolomide plus radiotherapy in patients with newly diagnosed glioblastoma” (Neuro-Oncology Advances, 2022).
# Like-named read-outs stand apart in the source and are kept apart here.
# Experiments:
# [1] = system: patients with newly diagnosed glioblastoma
# Text: The phase Ib, dose-escalation part of this study explored escalating oral doses of trotabresib in combination with TMZ in the adjuvant setting and with TMZ plus RT in the concomitant setting. […] Dose-escalation decisions were made by the safety review committee, based on all available safety, pharmacokinetics, pharmacodynamics, and preliminary efficacy information, and a calculation of risk assessment using a Bayesian logistic regression model.
# The primary endpoints of the study were to determine the safety and tolerability, maximum tolerated dose, and/or recommended phase II dose (RP2D) of trotabresib in combination with TMZ as adjuvant therapy, and with TMZ and RT as concomitant therapy. […] Trotabresib pharmacodynamics was an exploratory endpoint.
# Adverse events (AEs) were classified using the Medical Dictionary for Regulatory Activities v18.1 or higher system organ class and preferred term. Severity of AEs was graded based on the patient’s symptoms according to the National Cancer Institute Common Terminology Criteria for Adverse Events v5.0.[35] Dose-limiting toxicities (DLTs) were defined as any of the toxicities described in Supplementary Table S2 occurring within the DLT assessment period (cycle 1 [28 days]), unless the event could clearly be determined to be unrelated to trotabresib. Screening MRI scans were performed after surgical resection and within 28 days (+3 days) prior to initiation of study treatment. Subsequent tumor assessments by MRI or CT were performed at week 10 during the concomitant treatment period and at the end of every other treatment cycle from cycle 2 onwards during the adjuvant and trotabresib monotherapy treatment periods. Best overall response (BOR) was evaluated as complete response (CR), partial response (PR), SD, progressive disease (PD), or not evaluable, according to Response Assessment in Neuro-Oncology criteria for high-grade glioma.[36] Plasma samples were collected during the first treatment cycle for investigation of trotabresib pharmacokinetics and pharmacodynamics. Plasma pharmacokinetic parameters assessed included peak plasma concentration (Cmax), time to peak plasma concentration (tmax), area under the plasma concentration–time curve (AUC), and terminal half-life (t½). Pharmacodynamic markers assessed included blood levels of CCR1 and HEXIM1 mRNA, which are established markers of BET inhibitor target engagement.[17],[22],[37],[38]
# glioblastoma = system: glioblastoma; set-up: method as in earlier work; conditions: study discontinued; cited from earlier work
# rhabdomyosarcoma cells = system: rhabdomyosarcoma cells; set-up: method as in PMID 32200036; conditions: cited from earlier work
# MYC = conditions: in vitro; cited from earlier work
# breast cancer cells = system: breast cancer cells; set-up: method as in PMID 32848091; conditions: cited from earlier work
# [2] = adjuvant overall (N = 18), related to labelled drug(s)
# [3] = concomitant overall (N = 14), related to labelled drug(s)
smiles,measurement,setting,value
"Cn1nnc2c(C(N)=O)ncn2c1=O [TMZ, temozolomide]","ALT increased TRAE, grade 3/4",[1]; [2],1 (6) n (%)
same,"AST increased TRAE, any grade",[1]; [2],2 (11) n (%)
same,"AST increased TRAE, grade 3/4",[1]; [2],0 n (%)
same,"Acneiform dermatitis TRAE, any grade",[1]; [2],1 (6) n (%)
same,"Acneiform dermatitis TRAE, grade 3/4",[1]; [2],0 n (%)
same,"Anemia TRAE, any grade",[1]; [2],3 (17) n (%)
same,"Anemia TRAE, grade 3/4",[1]; [2],0 n (%)
same,"Any TRAE, any grade",[1]; [2],17 (94) n (%)
same,"Any TRAE, grade 3/4",[1]; [2],10 (56) n (%)
same,"Asthenia TRAE, any grade",[1]; [2],6 (33) n (%)
same,"Asthenia TRAE, grade 3/4",[1]; [2],1 (6) n (%)
same,"Blood bilirubin increased TRAE, any grade",[1]; [2],0 n (%)
same,"Blood bilirubin increased TRAE, grade 3/4",[1]; [2],0 n (%)
same,"Decreased appetite TRAE, any grade",[1]; [2],6 (33) n (%)
same,"Decreased appetite TRAE, grade 3/4",[1]; [2],0 n (%)
same,"Diarrhea TRAE, any grade",[1]; [2],5 (28) n (%)
same,"Diarrhea TRAE, grade 3/4",[1]; [2],0 n (%)
same,"Dysgeusia TRAE, any grade",[1]; [2],4 (22) n (%)
same,"Dysgeusia TRAE, grade 3/4",[1]; [2],0 n (%)
same,"Dyspepsia TRAE, any grade",[1]; [2],2 (11) n (%)
same,"Dyspepsia TRAE, grade 3/4",[1]; [2],0 n (%)
same,"Fatigue TRAE, any grade",[1]; [2],2 (11) n (%)
same,"Fatigue TRAE, grade 3/4",[1]; [2],0 n (%)
same,"Hyperbilirubinemia TRAE, any grade",[1]; [2],3 (17) n (%)
same,"Hyperbilirubinemia TRAE, grade 3/4",[1]; [2],0 n (%)
same,"Hyperglycemia TRAE, any grade",[1]; [2],1 (6) n (%)
same,"Hyperglycemia TRAE, grade 3/4",[1]; [2],0 n (%)
same,"Hypophosphatemia TRAE, any grade",[1]; [2],1 (6) n (%)
same,"Hypophosphatemia TRAE, grade 3/4",[1]; [2],0 n (%)
same,"Hypotension TRAE, any grade",[1]; [2],0 n (%)
same,"Hypotension TRAE, grade 3/4",[1]; [2],0 n (%)
same,"Insomnia TRAE, any grade",[1]; [2],1 (6) n (%)
same,"Insomnia TRAE, grade 3/4",[1]; [2],0 n (%)
same,"Intracranial hemorrhage TRAE, any grade",[1]; [2],0 n (%)
same,"Intracranial hemorrhage TRAE, grade 3/4",[1]; [2],0 n (%)
same,"Leukopenia TRAE, any grade",[1]; [2],2 (11) n (%)
same,"Leukopenia TRAE, grade 3/4",[1]; [2],0 n (%)
same,"Lymphopenia TRAE, any grade",[1]; [2],2 (11) n (%)
same,"Lymphopenia TRAE, grade 3/4",[1]; [2],1 (6) n (%)
same,"Nausea TRAE, any grade",[1]; [2],12 (67) n (%)
same,"Nausea TRAE, grade 3/4",[1]; [2],0 n (%)
same,"Neutropenia TRAE, any grade",[1]; [2],7 (39) n (%)
same,"Neutropenia TRAE, grade 3/4",[1]; [2],4 (22) n (%)
same,"Pruritus TRAE, any grade",[1]; [2],0 n (%)
same,"Pruritus TRAE, grade 3/4",[1]; [2],0 n (%)
same,"Rash TRAE, any grade",[1]; [2],1 (6) n (%)
same,"Rash TRAE, grade 3/4",[1]; [2],0 n (%)
same,"Seizure TRAE, any grade",[1]; [2],0 n (%)
same,"Seizure TRAE, grade 3/4",[1]; [2],0 n (%)
same,"Thrombocytopenia TRAE, any grade",[1]; [2],13 (72) n (%)
same,"Thrombocytopenia TRAE, grade 3/4",[1]; [2],9 (50) n (%)
same,"Vomiting TRAE, any grade",[1]; [2],7 (39) n (%)
same,"Vomiting TRAE, grade 3/4",[1]; [2],0 n (%)
same,"ALT increased TRAE, any grade",[1]; [3],1 (7) n (%)
same,"ALT increased TRAE, grade 3/4",[1]; [3],1 (7) n (%)
same,"AST increased TRAE, any grade",[1]; [3],1 (7) n (%)
same,"AST increased TRAE, grade 3/4",[1]; [3],0 n (%)
same,"Acneiform dermatitis TRAE, any grade",[1]; [3],2 (14) n (%)
same,"Acneiform dermatitis TRAE, grade 3/4",[1]; [3],0 n (%)
same,"Anemia TRAE, any grade",[1]; [3],4 (29) n (%)
same,"Anemia TRAE, grade 3/4",[1]; [3],2 (14) n (%)
same,"Any TRAE, any grade",[1]; [3],14 (100) n (%)
same,"Any TRAE, grade 3/4",[1]; [3],9 (64) n (%)
same,"Asthenia TRAE, any grade",[1]; [3],4 (29) n (%)
same,"Asthenia TRAE, grade 3/4",[1]; [3],0 n (%)
same,"Blood bilirubin increased TRAE, any grade",[1]; [3],1 (7) n (%)
same,"Blood bilirubin increased TRAE, grade 3/4",[1]; [3],0 n (%)
same,"Decreased appetite TRAE, any grade",[1]; [3],4 (29) n (%)
same,"Decreased appetite TRAE, grade 3/4",[1]; [3],0 n (%)
same,"Diarrhea TRAE, any grade",[1]; [3],3 (21) n (%)
same,"Diarrhea TRAE, grade 3/4",[1]; [3],0 n (%)
same,"Dysgeusia TRAE, any grade",[1]; [3],4 (29) n (%)
same,"Dysgeusia TRAE, grade 3/4",[1]; [3],0 n (%)
same,"Dyspepsia TRAE, any grade",[1]; [3],2 (14) n (%)
same,"Dyspepsia TRAE, grade 3/4",[1]; [3],0 n (%)
same,"Fatigue TRAE, any grade",[1]; [3],5 (36) n (%)
same,"Fatigue TRAE, grade 3/4",[1]; [3],1 (7) n (%)
same,"Hyperbilirubinemia TRAE, any grade",[1]; [3],2 (14) n (%)
same,"Hyperbilirubinemia TRAE, grade 3/4",[1]; [3],0 n (%)
same,"Hyperglycemia TRAE, any grade",[1]; [3],0 n (%)
same,"Hyperglycemia TRAE, grade 3/4",[1]; [3],0 n (%)
same,"Hypophosphatemia TRAE, any grade",[1]; [3],1 (7) n (%)
same,"Hypophosphatemia TRAE, grade 3/4",[1]; [3],0 n (%)
same,"Hypotension TRAE, any grade",[1]; [3],0 n (%)
same,"Hypotension TRAE, grade 3/4",[1]; [3],0 n (%)
same,"Insomnia TRAE, any grade",[1]; [3],0 n (%)
same,"Insomnia TRAE, grade 3/4",[1]; [3],0 n (%)
same,"Intracranial hemorrhage TRAE, any grade",[1]; [3],0 n (%)
same,"Intracranial hemorrhage TRAE, grade 3/4",[1]; [3],0 n (%)
same,"Leukopenia TRAE, any grade",[1]; [3],1 (7) n (%)
same,"Leukopenia TRAE, grade 3/4",[1]; [3],0 n (%)
same,"Lymphopenia TRAE, any grade",[1]; [3],3 (21) n (%)
same,"Lymphopenia TRAE, grade 3/4",[1]; [3],1 (7) n (%)
same,"Nausea TRAE, any grade",[1]; [3],11 (79) n (%)
same,"Nausea TRAE, grade 3/4",[1]; [3],0 n (%)
same,"Neutropenia TRAE, any grade",[1]; [3],6 (43) n (%)
same,"Neutropenia TRAE, grade 3/4",[1]; [3],4 (29) n (%)
same,"Pruritus TRAE, any grade",[1]; [3],0 n (%)
same,"Pruritus TRAE, grade 3/4",[1]; [3],0 n (%)
same,"Rash TRAE, any grade",[1]; [3],0 n (%)
same,"Rash TRAE, grade 3/4",[1]; [3],0 n (%)
same,"Seizure TRAE, any grade",[1]; [3],0 n (%)
same,"Seizure TRAE, grade 3/4",[1]; [3],0 n (%)
same,"Thrombocytopenia TRAE, any grade",[1]; [3],10 (71) n (%)
same,"Thrombocytopenia TRAE, grade 3/4",[1]; [3],7 (50) n (%)
same,"Vomiting TRAE, any grade",[1]; [3],8 (57) n (%)
same,"Vomiting TRAE, grade 3/4",[1]; [3],0 n (%)
same,"ALT increased TRAE, any grade","[1]; human, in vivo",2 (11) n (%)
same,"TEAEs leading to discontinuation of the labelled study drug(s), patients","[1]; human, in vivo",2 (11) 2 (11) 2 (11) n (%)
same,"TRAEs leading to discontinuation of TMZ, related to labelled drug(s)","[1]; human, in vivo",1 (6) 1 (6) 1 (6) n (%)
same,"TRAEs leading to discontinuation of any study drug, related to labelled drug(s)","[1]; human, in vivo",1 (6) 1 (6) 1 (6) n (%)
same,"TRAEs leading to discontinuation of trotabresib, related to labelled drug(s)","[1]; human, in vivo",1 (6) 1 (6) 1 (6) n (%)
Cc1sc2c(c1C)C(c1ccc(Cl)cc1)=N[C@@H](CC(=O)Nc1ccc(O)cc1)c1nnc(C)n1-2 [OTX015],Clinical activity (primary endpoint 6-month PFS),glioblastoma,lack of clinical activity
same,Antitumor activity as a single agent,rhabdomyosarcoma cells,demonstrated antitumor activity as a single agent
same,Effect on ionizing radiation,rhabdomyosarcoma cells,potentiated the effects of ionizing radiation
"Cc1sc2c(c1C)C(c1ccc(Cl)cc1)=N[C@@H](CC(=O)OC(C)(C)C)c1nnc(C)n1-2 [JQ1, reference compound]",MYC expression,MYC,downregulated in vitro
CCNC(=O)C[C@@H]1N=C(c2ccc(Cl)cc2)c2cc(OC)ccc2-n2c(C)nnc21 [iBET-762],Expression of the HER2-regulated gene TUBB3,breast cancer cells,upregulated expression
same,Sensitivity to vinorelbine,breast cancer cells; in vitro and in PDX models,increased sensitivity to vinorelbine
